From US10899732B2, “Substituted benzamides useful as sodium channel blockers” (GENENTECH, INC., priority 2015, dated 2021)

What was measured:
NaV1.5 = molecular target: T1, NaV1.5 (Homo sapiens, UniProt Q14524); test: Patch voltage clamp electrophysiology assay (EP), NaV1.5 in HEK-293 cells; format: cell-based; conditions: HEK-293, β1 coexpressed, held at -60 mV (inactivated state)
T1 construct: expression vector containing the full-length cDNA coding for the desired human sodium channel α-subunit; expressed in transfected cells; host or cells: HEK-293
Method in brief: (§1)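 Whole-cell patch clamp at ambient temperature on HEK-293 cells stably expressing human NaV1.5 or NaV1.7 with β1 subunit; CsF internal pH 7.2, NaCl external pH 7.4. Held at −60 mV (full inactivation), 20 ms step to −150 mV, then test pulse; percent current decrease after compound wash-on taken as block.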

NaV1.7 = molecular target: T2, NaV1.7 (Homo sapiens, UniProt Q15858); test: Patch voltage clamp electrophysiology assay (EP), NaV1.7 in HEK-293 cells; format: cell-based; conditions: HEK-293, β1 coexpressed, held at -60 mV (inactivated state)
T2 construct: expression vector containing the full-length cDNA coding for the desired human sodium channel α-subunit; expressed in transfected cells; host or cells: HEK-293
Method in brief: as §1

hNav1.7 = molecular target: T3, hNav1.7 (Homo sapiens, UniProt Q15858); test: Tritiated sulfonamide competitive binding to membranes from cells expressing hNav1.7 and the β1 subunit (LBA); conditions: competition with 100 pM [3H]compound, 18 h, room temperature; read-out: Nav1.7 (LBA)
T3 construct: expressed in transfected cells
Method in brief: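 Membranes from cells co-expressing hNav1.7 and β1 incubated 18 h at room temperature with 100 pM tritiated sulfonamide and test compound in 100 mM NaCl/20 mM Tris pH 7.4. Non-specific binding defined by 1 μM unlabelled compound; filter-bound radioactivity counted, IC50 from 4-parameter logistic fit.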

T1 sequence (Q14524 whole entry): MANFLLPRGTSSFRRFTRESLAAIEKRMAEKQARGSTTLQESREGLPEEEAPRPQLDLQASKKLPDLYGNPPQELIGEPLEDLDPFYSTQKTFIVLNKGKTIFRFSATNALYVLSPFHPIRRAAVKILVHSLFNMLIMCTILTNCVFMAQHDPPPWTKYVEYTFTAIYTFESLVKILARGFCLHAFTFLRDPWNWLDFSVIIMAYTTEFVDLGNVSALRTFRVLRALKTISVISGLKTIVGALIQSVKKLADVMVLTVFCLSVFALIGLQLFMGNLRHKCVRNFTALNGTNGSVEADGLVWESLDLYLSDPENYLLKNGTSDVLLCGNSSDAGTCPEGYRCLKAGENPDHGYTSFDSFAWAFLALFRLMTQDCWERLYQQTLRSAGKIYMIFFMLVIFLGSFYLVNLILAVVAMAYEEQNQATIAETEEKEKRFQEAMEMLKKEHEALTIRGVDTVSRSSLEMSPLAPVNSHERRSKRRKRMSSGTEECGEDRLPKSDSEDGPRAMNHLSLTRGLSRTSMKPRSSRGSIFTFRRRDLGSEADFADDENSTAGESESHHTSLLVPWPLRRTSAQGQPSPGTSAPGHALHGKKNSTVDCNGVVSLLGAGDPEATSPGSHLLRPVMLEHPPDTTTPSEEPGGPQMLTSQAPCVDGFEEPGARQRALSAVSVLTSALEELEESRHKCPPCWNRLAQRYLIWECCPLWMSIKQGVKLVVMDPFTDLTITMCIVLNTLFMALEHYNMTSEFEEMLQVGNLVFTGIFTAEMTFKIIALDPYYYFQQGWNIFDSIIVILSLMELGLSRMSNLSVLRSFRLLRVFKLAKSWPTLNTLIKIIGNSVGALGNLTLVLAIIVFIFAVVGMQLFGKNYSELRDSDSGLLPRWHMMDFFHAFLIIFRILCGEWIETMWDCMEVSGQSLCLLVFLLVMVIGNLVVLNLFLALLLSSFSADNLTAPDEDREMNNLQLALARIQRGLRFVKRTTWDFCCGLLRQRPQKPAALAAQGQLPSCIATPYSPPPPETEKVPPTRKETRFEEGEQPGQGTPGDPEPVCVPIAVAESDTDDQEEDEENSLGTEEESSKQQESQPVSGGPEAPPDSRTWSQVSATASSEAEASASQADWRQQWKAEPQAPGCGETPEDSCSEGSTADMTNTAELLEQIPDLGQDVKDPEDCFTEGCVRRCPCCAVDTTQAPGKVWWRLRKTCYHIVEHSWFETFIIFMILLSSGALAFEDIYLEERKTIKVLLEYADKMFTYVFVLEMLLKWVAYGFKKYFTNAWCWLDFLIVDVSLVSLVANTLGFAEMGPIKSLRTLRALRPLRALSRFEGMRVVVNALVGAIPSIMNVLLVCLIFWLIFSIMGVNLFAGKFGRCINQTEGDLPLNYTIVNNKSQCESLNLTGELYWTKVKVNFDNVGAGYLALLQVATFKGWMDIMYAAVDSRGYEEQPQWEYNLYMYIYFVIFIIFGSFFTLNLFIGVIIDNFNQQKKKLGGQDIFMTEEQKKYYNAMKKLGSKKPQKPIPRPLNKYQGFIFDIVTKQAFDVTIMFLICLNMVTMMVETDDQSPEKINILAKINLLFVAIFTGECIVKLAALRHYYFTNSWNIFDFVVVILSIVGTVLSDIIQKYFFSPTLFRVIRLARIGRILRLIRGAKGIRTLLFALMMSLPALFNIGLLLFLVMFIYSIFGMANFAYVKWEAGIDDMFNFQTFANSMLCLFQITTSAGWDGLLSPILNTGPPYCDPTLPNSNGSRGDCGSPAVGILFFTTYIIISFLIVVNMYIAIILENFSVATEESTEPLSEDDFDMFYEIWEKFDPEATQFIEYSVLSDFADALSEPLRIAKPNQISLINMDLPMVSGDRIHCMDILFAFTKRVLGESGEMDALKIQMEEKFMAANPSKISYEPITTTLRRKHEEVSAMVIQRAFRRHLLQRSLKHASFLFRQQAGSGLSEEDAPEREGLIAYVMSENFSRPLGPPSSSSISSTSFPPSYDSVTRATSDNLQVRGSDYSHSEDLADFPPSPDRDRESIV
T3 sequence (Q15858 1-1977 isoform Q15858-3): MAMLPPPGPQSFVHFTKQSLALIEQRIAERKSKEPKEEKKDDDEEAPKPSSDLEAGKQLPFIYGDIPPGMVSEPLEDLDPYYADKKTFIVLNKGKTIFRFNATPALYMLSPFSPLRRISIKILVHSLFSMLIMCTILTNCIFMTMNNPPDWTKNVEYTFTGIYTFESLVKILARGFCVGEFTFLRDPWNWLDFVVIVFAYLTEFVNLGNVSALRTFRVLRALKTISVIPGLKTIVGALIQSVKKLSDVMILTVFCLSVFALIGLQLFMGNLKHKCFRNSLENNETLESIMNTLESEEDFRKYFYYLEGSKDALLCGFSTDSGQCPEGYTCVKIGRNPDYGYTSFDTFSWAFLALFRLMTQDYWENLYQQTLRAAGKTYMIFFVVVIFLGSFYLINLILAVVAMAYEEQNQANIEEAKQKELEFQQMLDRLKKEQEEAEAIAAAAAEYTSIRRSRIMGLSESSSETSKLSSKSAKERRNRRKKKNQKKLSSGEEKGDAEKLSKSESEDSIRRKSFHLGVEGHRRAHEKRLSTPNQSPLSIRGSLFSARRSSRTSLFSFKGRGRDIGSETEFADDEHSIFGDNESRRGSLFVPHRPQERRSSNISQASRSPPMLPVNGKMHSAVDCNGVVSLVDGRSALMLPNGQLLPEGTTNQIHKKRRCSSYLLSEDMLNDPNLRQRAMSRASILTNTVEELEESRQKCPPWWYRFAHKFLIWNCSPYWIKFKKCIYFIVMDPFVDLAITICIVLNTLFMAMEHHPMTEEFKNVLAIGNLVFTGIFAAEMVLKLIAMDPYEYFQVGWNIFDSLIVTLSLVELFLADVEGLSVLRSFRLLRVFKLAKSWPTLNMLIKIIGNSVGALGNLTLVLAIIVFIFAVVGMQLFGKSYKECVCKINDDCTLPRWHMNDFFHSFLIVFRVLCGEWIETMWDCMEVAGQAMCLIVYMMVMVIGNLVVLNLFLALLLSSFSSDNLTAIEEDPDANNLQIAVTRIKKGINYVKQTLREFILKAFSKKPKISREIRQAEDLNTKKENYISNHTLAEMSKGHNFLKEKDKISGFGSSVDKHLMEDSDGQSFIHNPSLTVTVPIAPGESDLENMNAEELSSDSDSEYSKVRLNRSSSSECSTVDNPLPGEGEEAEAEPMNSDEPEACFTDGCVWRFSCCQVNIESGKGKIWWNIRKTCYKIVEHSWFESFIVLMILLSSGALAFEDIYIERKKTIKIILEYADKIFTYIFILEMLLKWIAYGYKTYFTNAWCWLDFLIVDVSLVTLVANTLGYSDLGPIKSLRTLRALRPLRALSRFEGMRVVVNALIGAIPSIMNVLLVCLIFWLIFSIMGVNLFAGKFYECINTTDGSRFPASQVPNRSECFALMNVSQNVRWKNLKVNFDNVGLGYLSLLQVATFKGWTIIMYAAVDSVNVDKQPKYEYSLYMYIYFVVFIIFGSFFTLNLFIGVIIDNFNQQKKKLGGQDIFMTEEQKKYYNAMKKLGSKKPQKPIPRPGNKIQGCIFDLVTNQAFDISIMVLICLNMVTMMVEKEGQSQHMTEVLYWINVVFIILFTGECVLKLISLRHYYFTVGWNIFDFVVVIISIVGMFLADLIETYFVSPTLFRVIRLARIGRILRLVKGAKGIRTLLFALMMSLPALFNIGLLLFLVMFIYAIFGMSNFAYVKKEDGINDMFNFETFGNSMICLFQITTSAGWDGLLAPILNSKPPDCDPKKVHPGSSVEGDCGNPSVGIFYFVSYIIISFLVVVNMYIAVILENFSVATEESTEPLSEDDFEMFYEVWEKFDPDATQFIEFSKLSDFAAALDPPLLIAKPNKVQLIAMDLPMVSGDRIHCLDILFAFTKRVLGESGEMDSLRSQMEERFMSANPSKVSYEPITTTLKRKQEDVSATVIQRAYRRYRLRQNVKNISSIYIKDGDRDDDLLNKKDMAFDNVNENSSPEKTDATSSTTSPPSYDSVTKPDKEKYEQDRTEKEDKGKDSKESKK
T3 sequence (Q07699 19-218 partner): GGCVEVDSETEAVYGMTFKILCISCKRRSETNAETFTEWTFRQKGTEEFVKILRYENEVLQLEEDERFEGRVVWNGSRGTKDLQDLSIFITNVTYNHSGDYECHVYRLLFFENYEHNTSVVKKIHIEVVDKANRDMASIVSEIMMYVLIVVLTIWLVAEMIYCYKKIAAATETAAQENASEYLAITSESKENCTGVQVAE
T2 sequence (Q15858 1-1977 isoform Q15858-3): as the sequence (Q15858 1-1977 isoform Q15858-3) above
T2 sequence (Q07699 19-218 partner): as the sequence (Q07699 19-218 partner) above

Cc1nn(C2CCN(Cc3cc(C(F)(F)F)cc(Cl)c3F)CC2)c2cc(F)c(C(=O)NS(C)(=O)=O)cc12 [Example 1, 1-(1-(3-chloro-2-fluoro-5-(trifluoromethyl)benzyl)piperidin-4-yl)-6-fluoro-3-methyl-N-(methylsulfonyl)-1H-indazole-5-carboxamide 2,2,2-trifluoroacetate]
IC50 (NaV1.5): 22000 nM
IC50 (NaV1.7): 680 nM
IC50 (hNav1.7): 34 nM
